Laboratory results published in patent US11241031B2, “Rebaudioside A and stevioside with improved solubilities” (SWEET GREEN FIELDS USA, LLC, priority 2014, dated 2022).

Legend:
[1] = Taste profiling of sample formulations (Example 4, Test 1 and Test 2); set-up: species or system human; conditions: Test 2; added to RA/RB solution
Experimental: The samples in lines 2, 4, and 8 of FIG. 1 (0.0625, 0.25, and 0.5625 20% NaOH added) were prepared by mixing raw materials and then formulated in to solutions.
Mixed product: prepared by simply mixing raw materials according to the ratio of Lot #15-0100.

[2] = Evaluation of other sweeteners and inorganic salts on the taste profile (Example 7); set-up: species or system human; conditions: for taste profile results, potassium chloride vs sodium chloride: Test 1, salt as component of the composition
Excerpt: Evaluation of the Effects of Other Sweeteners and Inorganic Salts on the Taste Profile of the Composition
Test 1: Evaluation of Compositions Comprising Sodium Chloride and Potassium Chloride
Test 2: Evaluation of Compositions Comprising Various Sweeteners

[3] = Taste profile (0-5 scale): different salt conditions (Example 11); set-up: species or system human; conditions: control as named at the place
Experimental: To evaluate the effect of different salt conditions on the resulting taste profiles relative to a control sample (i.e., 059 containing no salt), raw materials were mixed with pure water as indicated in Tables 28-31 to obtain the aqueous solutions as indicated. Taste profiles were determined as described above in Examples 9 and 10.

[4] = Taste profile (0-5 scale): adding additional steviol glycosides (Example 12); set-up: species or system human; conditions: added SG at 1.9 wt %; control without any added SGs
Experimental: To evaluate the effect of adding additional SGs on taste profiles relative to a control sample, raw materials were mixed with pure water as indicated in Table 32 to obtain the aqueous solutions as indicated. Taste profiles were determined as described above in Examples 9 and 10.

[5] = Double-blind Flash sensory analysis of hydrolyzed D-glucose on RA/RB and RA97; set-up: species or system human; scale not given here; conditions: about 300 ppm in distilled H2O, A = 9.6 ppm, B = 4.8 ppm reacted glucose
Experimental: Experiment 2: Testing the Sensory Effects of Hydrolyzed D-glucose on RA/RB and RA97
1. To replicate the composition of a dried RA/RB hydrolyte treated with 0.625 mL of reagent, 5 g of RA/RB using a 61:39 ratio of RA97:RB was prepared, making sure to mix the sample thoroughly to ensure homogenization. (3.05 g RA97+1.95 g RB=5 g RA/RB blend). […] HPLC was used to confirm replication.
2. The amount of liquid D-glucose from each vial to be equivalent to 0.96 mg D-glucose from vial A/0.48 mg reacted D-glucose from vial B (representing the reaction product from use of 300 ppm of Stevia reacted with the highest and mid-level amount of 20% NaOH (0.625 mL and 0.3215 mL respectively) would be:
3. The following solution sets were created:
i. 299.04 mg RA/RB blend+668.5µL D-Glucose solution vial A+distilled H2O to a final volume of 1,000 mL (299.04 ppm RA/RB+9.6 ppm reacted glucose).
ii. 299.52 mg RA/RB blend+668.5µL D-Glucose solution vial B+distilled H2O to a final volume of 1,000 mL (299.52 ppm RA/RB+4.8 ppm reacted glucose).
iii. 300 mg RA/RB blend+distilled H2O to a final volume of 1,000 mL (300 ppm RA/RB).
i. 299.04 mg RA97+668.5µL D-Glucose solution vial A+distilled H2O to a final volume of 1,000 mL (299.04 ppm RA97+9.6 ppm reacted glucose).
ii. 299.52 mg RA97+668.5µL D-Glucose solution vial B+distilled H2O to a final volume of 1,000 mL ([…]+4.8 ppm reacted glucose).
iii. 300 mg RA97+distilled H2O to a final volume of 1,000 mL (300 ppm RA97).
Each set was tasted using double-blind Flash sensory analysis (number of analysts=2).

[6] = cited from earlier work

[Cl-].[Na+] [sodium chloride]
effect of added component on the taste profile [1]: improved the “aftertaste” profile
taste profile results, potassium chloride vs sodium chloride [2]: Substantially same results

O=C([O-])[O-].[K+].[K+] [potassium carbonate]
taste profile relative to the control sample [3]: not significantly affected

O=C(CO)[C@@H](O)[C@H](O)[C@H](O)CO [fructose]
effect of sweetener on taste profile relative to glucose ([2]; Test 2, sweetener as component of the composition): slightly lower than glucose

C=C1C[C@@]23CC[C@H]4[C@@](C)(CCC[C@@]4(C)C(=O)O)[C@@H]2CC[C@]1(O[C@@H]1O[C@H](CO)[C@@H](O)[C@H](O)[C@H]1O[C@@H]1O[C@H](CO)[C@@H](O)[C@H](O)[C@H]1O)C3 [steviolbioside]
taste profile relative to control sample 10-1 [4]: not significantly affected

C=C1C[C@@]23CC[C@H]4[C@@](C)(CCC[C@@]4(C)C(=O)O[C@@H]4O[C@H](CO)[C@@H](O)[C@H](O)[C@H]4O)[C@@H]2CC[C@]1(O[C@@H]1O[C@H](CO)[C@@H](O)[C@H](O[C@@H]2O[C@H](CO)[C@@H](O)[C@H](O)[C@H]2O)[C@H]1O[C@@H]1O[C@H](CO)[C@@H](O)[C@H](O)[C@H]1O)C3 [RA97, Rebaudioside A]
T#10 Bitter [5]: 2.3
T#10 Linger [5]: 5
T#10 Ov. Like [5]: 6
T#10 Sugar Like Body [5]: 3.2
T#10 Sweetness [5]: 5.8
T#11 Bitter [5]: 5
T#11 Dry [5]: 5.9
T#11 Linger [5]: 5
T#11 Ov. Like [5]: 6.5
T#11 Sugar Like Body [5]: 4.4
T#11 Sweetness [5]: 6.8
solubility ([6]; in water at 25° C.): 0.8%

O=S(=O)([O-])[O-].[Mg+2] [magnesium sulfate]
taste profile relative to the control sample [3]: not significantly affected

O=C[C@H](O)[C@@H](O)[C@H](O)[C@H](O)CO [glucose]
effect of added component on the taste profile [1]: improved the “sugar like” profile

[Ca+2].[Cl-].[Cl-] [calcium chloride]
taste profile relative to the control sample [3]: not significantly affected

C=C1C[C@@]23CC[C@H]4[C@@](C)(CCC[C@@]4(C)C(=O)O[C@@H]4O[C@H](CO)[C@@H](O)[C@H](O)[C@H]4O)[C@@H]2CC[C@]1(O[C@@H]1O[C@H](CO)[C@@H](O)[C@H](O)[C@H]1O[C@@H]1O[C@H](CO)[C@@H](O)[C@H](O)[C@H]1O)C3 [stevioside]
taste profile relative to control sample 10-1 [4]: not significantly affected
solubility / dissolution (in words) ([6]; powder in water at 25° C.): very low solubility

[Cl-].[K+] [potassium chloride]
taste profile results, potassium chloride vs sodium chloride [2]: Substantially same results

rebaudioside C [Reb-C]
taste profile relative to control sample 10-1 [4]: not significantly affected
